# Results reported in patent publication US4465676A, “16α Halogen substituted 3,17β-dihydroxy steroidal estrogens” (priority 1980, dated 1984).
# Key:
# [1] = Stability of the radiolabelled compound on storage; type: physicochemical
# Description: In several experiments the yield of ^125 I-labeled estradiol ranged from 25 to 65 percent of the incubated ^125 I. The purified radioactive iodinated compound was stored at 0° to 4° C. in a benzene-methanol mixture (95:5).
# [2] = target: T1, estrogen receptor (calf uterine cytosol) (Bos taurus, UniProt P49884); assay: Competition for the estrogen receptor in calf uterine cytosol; type: binding; conditions: 125I-E2 0.22 nM, 3H-E2 0.74 nM
# T1 construct: Fresh calf uteri obtained from a slaughterhouse; from tissue; host or cells: calf uterus, 150,000 x g cytosol from lyophilized powder
# T1 sequence (P49884 1-596): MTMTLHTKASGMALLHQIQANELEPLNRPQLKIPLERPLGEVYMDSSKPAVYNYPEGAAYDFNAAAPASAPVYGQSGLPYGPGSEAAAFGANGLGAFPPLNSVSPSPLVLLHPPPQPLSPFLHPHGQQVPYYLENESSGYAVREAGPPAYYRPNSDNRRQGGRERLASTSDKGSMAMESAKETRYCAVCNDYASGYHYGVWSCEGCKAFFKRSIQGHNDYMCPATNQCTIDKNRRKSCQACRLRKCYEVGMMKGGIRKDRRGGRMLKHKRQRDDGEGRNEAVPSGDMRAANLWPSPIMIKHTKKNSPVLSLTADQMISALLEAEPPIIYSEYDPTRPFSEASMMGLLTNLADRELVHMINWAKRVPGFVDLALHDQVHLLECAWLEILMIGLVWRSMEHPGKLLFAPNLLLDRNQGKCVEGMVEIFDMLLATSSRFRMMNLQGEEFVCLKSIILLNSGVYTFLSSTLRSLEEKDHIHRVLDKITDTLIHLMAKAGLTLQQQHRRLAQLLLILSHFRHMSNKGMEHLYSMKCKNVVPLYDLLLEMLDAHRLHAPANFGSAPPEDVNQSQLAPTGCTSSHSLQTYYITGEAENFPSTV
# Description: Several compounds, at the two indicated concentrations, were allowed to compete with both labeled steroids for sites in calf uterine cytosol. Incubations were overnight at 4° C., and bound and free steroids were separated with dextran-coated charcoal.
# [3] = Tissue radioactivity 6 hours after injection into castrated female rats with and without DES; type: in vivo, Sprague-Dawley rats
# Description: (§1) To deterine whether 16α-[^125 I]iodoestradiol would be recognized by estrogen-responsive tissues, it was injected into castrated female rats with and without diethylstilbestrol (DES); after 6 hours the concentration of radioactivity in the uterus was compared to that in several other tissues.
# (§2) Female Sprague-Dawley rats (200 to 250 g) were castrated 48 hours before subcutaneous injection of ^125 I-labeled estradiol (1×10^6 count/min) dissolved in 10 μl of ethanol and 0.2 ml of saline. Twenty minutes before the administration of the iodinated estradiol, one group of rats (N=6) were injected with 5 μg of DES dissolved first in 50 μl of ethanol and then in 0.5 ml of saline. Another group of castrated rats (N=6) were injected with 0.5 ml of 10 percent ethanol in saline before receiving the radioactive steroid. The rats were killed 6 hours later and small pieces of the tissues were weighed and counted. All values are means ± standard deviations. To determine ether extractable radioactivity, the uterus, liver, and thyroid were homogenized in methanol and filtered. The filtrate was evaporated and the resulting residue was partitioned between ether and 0.1N NaHCO3. The ethereal solution was evaporated and counted and the results are tabulated below in Table I.
# (§3) Several micrograms of 16α-iodoestradiol were added to the ether extract of the uterus and the mixture was submitted to high-pressure liquid chromatography. High pressure liquid chromatography was performed on a 250 by 4.6 mm Lichrosorb Diol column (merck) with methylene chloride at a flow rate of 1 ml/min. In this system 16α-iodoestradiol is eluted in 12 minutes and 16β-bromoestradiol in 8 minutes. […] The radioactivity in the thyroid gland, approximately 2000 count/min, is probably due to the uptake of free iodide arising from the metabolism of ^125 I-labeled estradiol in vivo and is equivalent to only 0.2 percent of the injected dose.
# Rat Uterine Receptor = assay: as above; type: in vivo, Sprague-Dawley rats
# Description: as §1, §2, §3
# [4] = tested on: rat uterine cytosol (8S and 4S forms); assay: Glycerol gradient sedimentation of labelled rat uterine cytosol; type: binding; conditions: glycerol gradients, with and without 0.4M KCl; DES 7×10^-7 M
# Description: The analysis was performed with glycerol rather than the usual sucrose because a more pronounced 8S peak was obtained in the glycerol gradients with both ^3 H- and ^125 I-labeled estradiol. Rat uterine cytosol was prepared as described in Example 4. […] Separate tubes also contained 0.4M KCl. At the end of the incubation, free steroid was removed by adding the incubation mixture to a tube containing a 5-mg pellet of dextran-coated charcoal. After shaking for 5 to 10 minutes at 0° C., the charcoal was removed by centrifugation. […] Fractions of four drops were collected from the bottom of the tube. Control tubes containing cytosol mixed with ^14 C-labeled bovine serum albumin (BSA) as a marker were also analyzed. The sedimintation pattern is illustrated in FIG. 2. The low-salt 8S form (FIG. 2, Curve A) is totally transformed into the 4S form by 0.4M KCl (FIG. 2, Curve B).
# [5] = tested on: antisera against bovine serum albumin complexes with E2-17-hemisuccinate, E2-6-carboxymethyloxime and E2-3-carboxymethyl ether; assay: Radioimmunoassay with antisteroid antisera; type: binding, rabbits; conditions: three antisera, various dilutions
# Description: Antisteroid antisera were produced in rabbits immunized with steroid-bovineserum albumin conjugates.
# Varying amounts of E2 dissolved in methanol were added to test tubes and evaporated to dryness. The residues were dissolved in 100 μl of antiserum that had been diluted in 0.1M phosphate, pH 7.0/0.015M sodium azide/0.15M NaCl/0.1% gelatin (PBS buffer). […] Upon completion of the incubation, 100 μl of 0.5% gelatin in PBS buffer was added, followed by 1 ml of PBS buffer containing 2.5 mg of dextran-coated charcoal. The mixture was agitated in a vortex mixer and, after 10 minutes at 4° C., it was centrifuged at 5000×g for 10 minutes at 4° C. Aliquots (0.9 ml) were assayed for radioactivity.
# The data also indicate that very sensitive radioimmunoassays could be developed with all three antisera.
smiles,measurement,setting,value
"C[C@]12CC[C@@H]3c4ccc(O)cc4CC[C@H]3[C@@H]1C[C@@H]([125I])[C@@H]2O [^125 I-E2, 16α-[^125 I]iodoestra-1,3,5(10)-triene-3,17β-diol]",decomposition on storage,[1]; weeks of storage at 0° to 4° C. in benzene-methanol (95:5),no signs of decomposition
same,decomposition on storage,[1]; weeks of storage of 4° C.,little sign of decomposition
same,% B0 (initial specific binding of tracer alone),[2],40%
same,Ether-extractable radioactivity,[3]; Liver,10-15%
same,Ether-extractable radioactivity,[3]; Thyroid,0-1%
same,Ether-extractable radioactivity,[3]; Uterus,> 90%
same,nature of the radioactive material in the uterus,Rat Uterine Receptor; HPLC of ether extract of uterus with 16α-iodoestradiol carrier,unmetabolized
same,"Radioactivity, With DES","Rat Uterine Receptor; Heart, 5 μg DES, 6 hours",26 ± 7 count/min per 100 mg of tissue
same,"Radioactivity, Without DES","Rat Uterine Receptor; Heart, 6 hours",23 ± 5 count/min per 100 mg of tissue
same,"Radioactivity, With DES","Rat Uterine Receptor; Kidney, 5 μg DES, 6 hours",75 ± 20 count/min per 100 mg of tissue
same,"Radioactivity, Without DES","Rat Uterine Receptor; Kidney, 6 hours",73 ± 33 count/min per 100 mg of tissue
same,"Radioactivity, With DES","Rat Uterine Receptor; Liver, 5 μg DES, 6 hours",425 ± 105 count/min per 100 mg of tissue
same,"Radioactivity, Without DES","Rat Uterine Receptor; Liver, 6 hours",446 ± 184 count/min per 100 mg of tissue
same,"Radioactivity, With DES","Rat Uterine Receptor; Lung, 5 μg DES, 6 hours",56 ± 11 count/min per 100 mg of tissue
same,"Radioactivity, Without DES","Rat Uterine Receptor; Lung, 6 hours",47 ± 23 count/min per 100 mg of tissue
same,"Radioactivity, With DES","Rat Uterine Receptor; Muscle, 5 μg DES, 6 hours",18 ± 12 count/min per 100 mg of tissue
same,"Radioactivity, Without DES","Rat Uterine Receptor; Muscle, 6 hours",33 ± 23 count/min per 100 mg of tissue
same,"Radioactivity, With DES","Rat Uterine Receptor; Serum, 5 μg DES, 6 hours",68 ± 6 count/min per 100 mg of tissue
same,"Radioactivity, Without DES","Rat Uterine Receptor; Serum, 6 hours",69 ± 11 count/min per 100 mg of tissue
same,"Radioactivity, With DES","Rat Uterine Receptor; Thyroid, entire organ, 5 μg DES, 6 hours",2287 ± 805 count/min
same,"Radioactivity, Without DES","Rat Uterine Receptor; Thyroid, entire organ, 6 hours",1839 ± 802 count/min
same,"Radioactivity, With DES","Rat Uterine Receptor; Uterus, 5 μg DES 20 min before, 6 hours",73 ± 8 count/min per 100 mg of tissue
same,"Radioactivity, Without DES","Rat Uterine Receptor; Uterus, castrated rats, 6 hours after s.c. injection",313 ± 150 count/min per 100 mg of tissue
same,radioactivity in the thyroid gland as share of injected dose,Rat Uterine Receptor; thyroid gland,0.2% of the injected dose
same,radioactivity in the thyroid gland,"Rat Uterine Receptor; thyroid gland, probably free iodide",approximately 2000 count/min
same,displacement by DES of radioactivity bound to the 8S and 4S forms,[4],almost completely displaced by DES
same,binding of tracer to antisera,[5],bound to all three antisera
